Assay results as given in US11806428B2 (HARM REDUCTION THERAPEUTICS, INC., priority 2011, dated 2023).

Tests used:
clinical = details: both, human, plasma
[1] = Prediction of naloxone plasma concentrations with Excel: non-compartmental analysis on mean profiles scaled to the proposed doses; design: species or system human
[2] = intranasal administration
[3] = Safety assessment (adverse events, clinical laboratory results, vital signs, ECGs) in the 4-way crossover study; assay type: in vivo, human
[4] = oral administration; cited from earlier work
[5] = Prediction of naloxone plasma concentrations with WinNonlin Modeling: compartmental pharmacokinetic model and simulation; design: species or system human; details: 36 h
Experimental: The corresponding C max and AUCt-values are as follows (for the total time period of 36 h): […]

[6] = predicted for 0.4 mg IV, based on 1 mg IV data excluding the outlying subject
[7] = predicted for 0.4 mg IV, based on 1 mg IV data, all subjects
[8] = predicted for 1.2 mg IN, based on 8 mg IN data
[9] = predicted for 1.2 mg IN, based on 16 mg IN data
[10] = predicted for 1.6 mg IN, based on 8 mg IN data
[11] = predicted for 1.6 mg IN, based on 16 mg IN data
[12] = another subject, Day 44, normal before study drug, rated possibly related

C=CCN1CC[C@]23c4c5ccc(O)c4O[C@H]2C(=O)CC[C@@]3(O)[C@H]1C5 [naloxone]
bioavailability (clinical; other: intranasal, 8 mg): 32% | bioavailability (clinical; other: intranasal, 16 mg): 27% | bioavailability (clinical; other: sublingual, 16 mg): ~2% | AUCt [1, 6]: 3.8122 ng·h/mL | Cmax [1, 6]: 2.8817 ng/mL | AUCt [1, 7]: 4.5789 ng·h/mL | Cmax [1, 7]: 4.7352 ng/mL | AUCt [1, 8]: 3.1596 ng·h/mL | Cmax [1, 8]: 1.5352 ng/mL | AUCt [1, 9]: 2.585 ng·h/mL | Cmax [1, 9]: 1.0525 ng/mL | AUCt [1, 10]: 4.2128 ng·h/mL | Cmax [1, 10]: 2.0469 ng/mL | AUCt [1, 11]: 3.4467 ng·h/mL | Cmax [1, 11]: 1.4034 ng/mL | peak plasma concentrations attained as early as (time after dosing) ([2]; earliest): 6 min | time to peak plasma concentrations, median ([2]; median): 18 min | treatment-emergent adverse events (TEAEs) ([3]; 1 mg intravenous): 4 TEAEs | treatment-emergent adverse events (TEAEs) ([3]; 8 mg intranasal): 3 TEAEs | treatment-emergent adverse events (TEAEs) ([3]; 16 mg intranasal): 5 TEAEs | treatment-emergent adverse events (TEAEs) ([3]; 16 mg sublingual): 1 TEAE | changes in ECG ([3]; all treatments): No clinically relevant changes in ECG occurred | deaths, serious adverse events, other significant adverse events ([3]; all treatments): no deaths, serious adverse events, or other significant adverse events | markedly abnormal change in blood pressure ([3]; all treatments): one subject | markedly abnormal changes in pulse rate ([3]; all treatments): Three subjects | overall trend in abnormal vital sign changes ([3]; all treatments): No overall trend in abnormal vital sign changes was observed | markedly abnormal high SGPT value [3, 12]: 371 U/l | markedly abnormal high total bilirubin value [3, 12]: 39.33 µmol/L | markedly abnormal low potassium value [3, 12]: 3.3 mmol/L | TEAEs of vasovagal attack ([3]; intranasal application (one after 8 mg, one after 16 mg)): 2 subjects | TEAEs of vasovagal attack ([3]; intravenous bolus 1 mg): 1 subject | markedly abnormal high triglyceride value ([3]; one subject, Day 44, 4.189 mmol/l on Day -9 before study drug): 8.355 mmol/L | oral bioavailability [4]: < 3% | AUCt [5, 8]: 2.8762 ng·h/mL | Cmax [5, 8]: 1.5995 ng/mL | AUCt [5, 9]: 2.1631 ng·h/mL | Cmax [5, 9]: 0.8935 ng/mL | AUCt [5, 10]: 3.835 ng·h/mL | Cmax [5, 10]: 2.1326 ng/mL | AUCt [5, 11]: 2.8841 ng·h/mL | Cmax [5, 11]: 1.1913 ng/mL
